Data published in patent US20080274095A1, “Biocides” (priority 2004, published 2008).
Ends that are not written are not given here.

Tests used:
[1] = tested on: panel of organisms in stationary growth phase; conditions: cited from earlier work
Caco-2 Host Cells = experiment: Host cell toxicity assay by LDH release; format: cell-based, human
Method: Host cell toxicity assay was performed by measuring the release of lactate dehydrogenase (LDH) in the medium using a CYTOTOX 96 Non-Radioactive Cytotoxicity Assay kit (Promega, Madison, Wis.). Toxicity was therefore classified as non toxic 0-5% LDH release and mild toxicity 5-10% LDH release (ref).

[2] = read-out: affinity constant (Km) for substrate; cited from earlier work
C. parvum sporozoites = experiment: Effect of PLA2 on C. parvum sporozoite infectivity for Caco-2 monolayers; format: cell-based, Cryptosporidium parvum
Method: This experiment describes the effects of PLA2 on sporozoite infectivity. Briefly, sporozoites were incubated in an isotonic saline solution (37° C., 30 min) with a range of concentrations of PLA2 isolated from honey bee venom (Sigma-Aldrich Corp., St. Louis, Mo., 1.5 U/μg protein). Control sporozoites were identically incubated in buffer containing concentration-matched BSA but no PLA2. Sporozoites were then washed in medium and inoculated onto replicate Caco-2 human intestinal epithelial cell monolayers. 24 h later, infection was quantified in test and control monolayers by immunofluorescence assay as described herein and the mean percent reduction of infection calculated. […] Percent viability of Caco-2 cells following exposure to PLA2-treated sporozoites (86%) was similar to that of uninoculated control cells (91%) at 24 hrs, as determined by trypan blue dye exclusion. […]
For this assay, isolated sporozoites are incubated (15 min, 37° C.) with an individual biocide in isotonic buffer over a range of concentrations that would theoretically be achievable at the sporozoite surface by targeted delivery as a MAb-biocide fusion protein. […] In parallel, viability of control sporozoites after incubation with the selected biocide concentrations is determined by fluorescein diacetate assay. […] Samples are then processed and evaluated as described herein. […]

Caco-2 cells = experiment: Caco-2 cell viability by trypan blue dye exclusion; format: cell-based, human; conditions: following exposure to PLA2-treated sporozoites, 24 hrs
Method: This experiment describes the effects of PLA2 on sporozoite infectivity. Briefly, sporozoites were incubated in an isotonic saline solution (37° C., 30 min) with a range of concentrations of PLA2 isolated from honey bee venom (Sigma-Aldrich Corp., St. Louis, Mo., 1.5 U/μg protein). Control sporozoites were identically incubated in buffer containing concentration-matched BSA but no PLA2. Sporozoites were then washed in medium and inoculated onto replicate Caco-2 human intestinal epithelial cell monolayers. 24 h later, infection was quantified in test and control monolayers by immunofluorescence assay as described herein and the mean percent reduction of infection calculated. […] Percent viability of Caco-2 cells following exposure to PLA2-treated sporozoites (86%) was similar to that of uninoculated control cells (91%) at 24 hrs, as determined by trypan blue dye exclusion. […] Through fusion of PLA2 to a monoclonal antibody with a high affinity for sporozoites, such as 1E10 or 4H9, lethal concentrations of biocide are deliverable to the sporozoite surface with relatively low amounts of biocide being used.

With “HNP-1: human neutrophil defensin, SEQ ID NO 38” as the molecule, how does the “antimicrobial properties relative to other defensins” value [1] read?
The value was “most potent antimicrobial properties”.

Which “% LDH release” value (Caco-2 Host Cells; 10 μg/ml) does the source give for indolicidin here?
The value was 0.9 ± 0.7%.

What about the “% LDH release” value (Caco-2 Host Cells; 100 μg/ml) of the same molecule?
Its value is 8.3 ± 3.5 %.

Which “% LDH release” value (Caco-2 Host Cells; 10 μg/ml) does the source give for `CC[C@H](C)[C@H](NC(=O)[C@H](CCCCN)NC(=O)[C@H](CCC(=O)O)NC(=O)[C@H](CCCCN)NC(=O)[C@H](CO)NC(=O)[C@H](CCCCN)NC(=O)[C@H](CCCNC(=N)N)NC(=O)[C@H](Cc1ccccc1)NC(=O)[C@H](Cc1ccccc1)NC(=O)[C@H](CC(=O)O)NC(=O)CNC(=O)[C@H](CC(C)C)NC(=O)[C@@H](N)CC(C)C)C(=O)NCC(=O)N[C@@H](CCCCN)C(=O)N[C@@H](CCC(=O)O)C(=O)N[C@@H](Cc1ccccc1)C(=O)N[C@@H](CCCCN)C(=O)N[C@@H](CCCNC(=N)N)C(=O)N[C@H](C(=O)N[C@H](C(=O)N[C@@H](CCC(N)=O)C(=O)N[C@@H](CCCNC(=N)N)C(=O)N[C@H](C(=O)N[C@@H](CCCCN)C(=O)N[C@@H](CC(=O)O)C(=O)N[C@@H](Cc1ccccc1)C(=O)N[C@@H](CC(C)C)C(=O)N[C@@H](CCCNC(=N)N)C(=O)N[C@@H](CC(N)=O)C(=O)N[C@@H](CC(C)C)C(=O)N[C@H](C(=O)N1CCC[C@H]1C(=O)N[C@@H](CCCNC(=N)N)C(=O)N[C@H](C(=O)N[C@@H](CCC(=O)O)C(=O)N[C@@H](CO)C(=O)O)[C@@H](C)O)C(C)C)[C@@H](C)CC)C(C)C)[C@@H](C)CC` [CAT, cathelicidin] here?
The value was 1.6 ± 0.3 %.

And the “% LDH release” value (Caco-2 Host Cells; 100 μg/ml)?
The value was 5.6 ± 0.9 %.

Which “% LDH release” value (Caco-2 Host Cells; 10 μg/ml) does the source give for b-defensin 2 [βD2] here?
Its value is −0.9 ± 0.5%.

And the “% LDH release” value (Caco-2 Host Cells; 100 μg/ml)?
Its value is 5.3 ± 1.5 %.

For “NP-1: rabbit neutrophil defensin, SEQ ID NO 42 (VVCACRRALCLPRERRAGFCRIRGRIHPLCCRR)”, which “antimicrobial properties relative to other defensins” value [1] is on record?
The value was “most potent antimicrobial properties”.

For lactoferricin B [LFB], which “% LDH release” value (Caco-2 Host Cells; 10 μg/ml) is on record?
Its value is 3.7 ± 2.3%.

What about the “% LDH release” value (Caco-2 Host Cells; 100 μg/ml) of the same molecule?
The value was 2.6 ± 2.0%.

With lysozyme [LYZ] as the molecule, how does the Km [2] read?
Its Km is about 1000 µM.

And the “% LDH release” value (Caco-2 Host Cells; 100 μg/ml)?
Its value is −1.9 ± 1.3%.

Which Km [2] does the source give for phospholipase A2 here?
The Km was about 100 µM.

With bee-venom phospholipase A2 [PLA2] as the molecule, how does the “concentration effective in neutralization” value (C. parvum sporozoites; preliminary data) read?
Its value is under 0.02 units/ml.

What about the “concentration achieving highly significant reduction of sporozoite infectivity” value (C. parvum sporozoites; sporozoites incubated 37° C., 30 min with bee venom PLA2, Caco-2 monolayers, 24 h, P<0.0005) of the same molecule?
Its value is at most 0.014 U/ml.

What about the “Percent viability of Caco-2 cells” value (Caco-2 cells) of the same molecule?
The value was 86%.

What about the “% LDH release” value (Caco-2 Host Cells; 100 μg/ml) of the same molecule?
Its value is 0.7 ± 0.7%.

What does the source list for “b-defensin 1 (DHYNCVSSGGQCLYSACPIFTKIQGTCYRGKAKCCK; ends and bridges not checked; cysteine pairing not given here; UniProt P60022 33-68, looked up) [βD1, Peptides international]”?
% LDH release (Caco-2 Host Cells; 10 μg/ml): 0.8 ± 1.0%; % LDH release (Caco-2 Host Cells; 100 μg/ml): 2.3 ± 2.1%

With “phospho-inositol specific phospholipase C [PI-PLC]” as the molecule, how does the “% LDH release” value (Caco-2 Host Cells; 100 μg/ml) read?
The value was −1.4 ± 0.9%.
